{"source": "patent US20100273144A1", "about": "“NOVEL USE OF GRP 94 IN VIRUS INFECTION” (priority 2008, published 2010)", "molecules": {"B1": {"name": "tumor necrosis-related apoptosis-inducing ligand (protein, UniProt P50591 1-281, looked up)", "Tumor necrosis factor ligand …": "MAMMEVQGGPSLGQTCVLIVIFTVLLQSLCVAVTYVYFTNELKQMQDKYSKSGIACFLKEDDSYWDPNDEESMNSPCWQVKWQLRQLVRKMILRTSEETISTVQEKQQNISPLVRERGPQRVAAHITGTRGRSNTLSSPNSKNEKALGRKINSWESSRSGHSFLSNLHLRNGELVIHEKGFYYIYSQTYFRFQEEIKENTKNDKQMVQYIYKYTSYPDPILLMKSARNSCWSKDAEYGLYSIYQGGIFELKENDRIFVSVTNEHLIDMDHEASFFGAFLVG"}}, "key": {"[1]": {"molecular_target": "T1, IKKα/β (Homo sapiens, UniProt O14920+O15111)", "T1 construct": "were monitored using GRP94-overexpressing and control cell lines; endogenous in cells; host or cells: Huh-7 cells stably carrying pCDNA3.1 (control) or pCDNA3.1-GRP94", "T1 sequence (O15111 whole entry)": "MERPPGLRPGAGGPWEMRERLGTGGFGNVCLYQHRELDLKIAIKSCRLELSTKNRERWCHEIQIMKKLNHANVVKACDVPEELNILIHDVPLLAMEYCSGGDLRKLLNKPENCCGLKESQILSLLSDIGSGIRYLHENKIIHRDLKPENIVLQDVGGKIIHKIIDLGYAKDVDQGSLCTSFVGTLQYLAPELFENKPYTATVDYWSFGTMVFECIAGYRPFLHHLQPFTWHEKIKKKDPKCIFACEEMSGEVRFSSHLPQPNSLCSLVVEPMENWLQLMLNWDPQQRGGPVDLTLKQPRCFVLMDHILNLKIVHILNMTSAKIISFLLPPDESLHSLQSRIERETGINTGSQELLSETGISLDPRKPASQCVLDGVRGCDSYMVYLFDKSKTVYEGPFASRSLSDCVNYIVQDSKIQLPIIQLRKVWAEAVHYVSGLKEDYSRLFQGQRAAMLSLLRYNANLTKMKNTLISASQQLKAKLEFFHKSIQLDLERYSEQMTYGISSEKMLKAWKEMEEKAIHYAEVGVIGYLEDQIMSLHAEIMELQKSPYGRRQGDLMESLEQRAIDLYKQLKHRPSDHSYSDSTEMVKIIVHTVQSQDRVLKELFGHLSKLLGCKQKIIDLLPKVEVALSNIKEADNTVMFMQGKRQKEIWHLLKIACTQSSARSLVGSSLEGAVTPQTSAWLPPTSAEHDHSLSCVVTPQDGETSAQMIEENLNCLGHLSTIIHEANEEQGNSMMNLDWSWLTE", "T1 sequence (O14920 whole entry)": "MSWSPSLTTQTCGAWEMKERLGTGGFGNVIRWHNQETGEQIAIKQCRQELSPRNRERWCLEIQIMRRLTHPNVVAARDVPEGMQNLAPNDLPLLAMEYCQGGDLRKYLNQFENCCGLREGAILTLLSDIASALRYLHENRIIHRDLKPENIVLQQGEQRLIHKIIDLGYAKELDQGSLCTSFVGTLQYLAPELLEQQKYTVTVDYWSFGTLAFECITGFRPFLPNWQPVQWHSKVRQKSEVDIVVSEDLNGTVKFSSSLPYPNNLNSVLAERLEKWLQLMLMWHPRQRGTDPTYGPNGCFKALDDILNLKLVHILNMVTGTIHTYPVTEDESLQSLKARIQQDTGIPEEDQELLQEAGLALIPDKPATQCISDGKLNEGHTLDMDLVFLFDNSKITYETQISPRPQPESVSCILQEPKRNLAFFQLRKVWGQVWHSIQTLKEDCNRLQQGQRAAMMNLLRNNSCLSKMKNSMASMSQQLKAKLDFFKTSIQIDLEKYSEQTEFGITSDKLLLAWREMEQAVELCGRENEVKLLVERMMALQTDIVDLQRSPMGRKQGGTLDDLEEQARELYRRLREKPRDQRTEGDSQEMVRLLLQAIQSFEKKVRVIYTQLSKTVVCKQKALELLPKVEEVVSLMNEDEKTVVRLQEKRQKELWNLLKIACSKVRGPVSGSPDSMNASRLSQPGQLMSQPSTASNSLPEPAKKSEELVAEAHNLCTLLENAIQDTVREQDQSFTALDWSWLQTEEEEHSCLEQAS", "T1 sequence (Q9Y6K9 whole entry partner)": "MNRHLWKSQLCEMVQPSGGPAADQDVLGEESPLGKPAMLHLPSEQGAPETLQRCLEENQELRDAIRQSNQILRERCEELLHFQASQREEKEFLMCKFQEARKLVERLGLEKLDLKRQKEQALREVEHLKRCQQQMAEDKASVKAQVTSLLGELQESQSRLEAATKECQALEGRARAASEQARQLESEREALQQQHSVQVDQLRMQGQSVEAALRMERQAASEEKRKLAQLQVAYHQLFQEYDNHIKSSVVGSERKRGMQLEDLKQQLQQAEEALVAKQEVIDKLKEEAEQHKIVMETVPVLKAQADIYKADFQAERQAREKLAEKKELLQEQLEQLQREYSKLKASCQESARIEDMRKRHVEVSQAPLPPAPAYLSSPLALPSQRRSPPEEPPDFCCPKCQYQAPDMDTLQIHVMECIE", "test": "Effect of BAY11-7082 on expression of NF-κB-related survival genes, Western-blot, control and GRP94-overexpressing cells", "format": "cell-based", "set-up": "dose or concentration left out as unconfirmed", "method": "Western-blot analysis—Proteins were resolved by 8% or 13.5% SDS-PAGE and transferred to nitrocellulose membranes (Amersham). The membranes were blocked overnight with 5% skimmed milk in Tris-buffered saline (TBS) [20 mM Tris-HCl (pH 7.5), 150 mM NaCl, 0.5% Tween-20] and then incubated with monoclonal antibodies against actin (1:5000), GRP94 (1:1000), Hsp90 (1:1000), TRAF2 (1:500), XIAP (1:1000), survivin (1:500), glyceraldehyde-3-phosphate dehydrogenase (GAPDH) (1:5000) and IKKα/β for 5 hours. A monoclonal anti-human actin antibody was used as a control. […]\nThe inventors tried to determine the stage of the signaling cascade at which NF-κB is activated by GRP94. […] The effects of BAY11-7082, a specific inhibitor of IKKα/β, on the expression of NF-κB-related gene products were monitored using GRP94-overexpressing and control cell lines, and the obtained results are shown in FIG. 4B. […] Effect of abrogation of IKKα/β activity by BAY11-7082 on the expression of NF-κB-related survival genes was monitored by Western-blot analysis; lanes 2 and 4 show results with and lanes 1 and 3 show results without treatment of the drug […] for 4 hrs on control (lanes 1 and 2) and GRP94-overexpressing (lanes 3 and 4) cells."}, "[2]": {"system": "NF-κB", "test": "NF-κB reporter assay (firefly luciferase under NF-κB response element) in 293T cells", "format": "cell-based", "details": "10 ng TNF-α for 12 hours, vs mock-treated", "method": "(§1) Luciferase assay—Luciferase assays were performed using a luciferase assay kit (Promega), according to the manufacturer's instructions. The luciferase activities in the cells were normalized by the protein concentrations, as determined by the Bradford assay.\nThe activation of NF-κB by overproduction of GRP94 was investigated by measuring the activity of a reporter gene (firefly luciferase) under the control of the […] response element (FIG. 4A). […] 293T cells were transfected with pNF-κB-Luc, which encodes the firefly luciferase gene under the control of a NF-κB response element, with control vector plasmid (pCDNA3.1) (lane 3) or with the plasmid pCDNA3.1-GRP94, which produces. GRP94 (lane 4). Control plasmid pRLCMV-Luc (Promega) was also cotransfected to normalize transfection efficiency. After incubation of the cells for 48 hours, cells were further incubated in serum-free medium for 6 hours, mock-treated (lane 1), or treated with 10 ng TNF-α for 12 hours (lane 2), before luciferase activities were measured. Three independent experiments were performed and the relative values (TNF-α-treated vs mock-treated, and GRP94-overexpressed vs mock-expressed) are shown."}, "[3]": {"system": "IκBα", "test": "Time-course analysis of IκBα levels after TNF-α treatment, Western-blot, Huh-7 cells with or without HCV replicons", "format": "cell-based", "details": "TNF-α 10 ng/ml", "method": "Western-blot analysis—Proteins were resolved by 8% or 13.5% SDS-PAGE and transferred to nitrocellulose membranes (Amersham). The membranes were blocked overnight with 5% skimmed milk in Tris-buffered saline (TBS) [20 mM Tris-HCl (pH 7.5), 150 mM NaCl, 0.5% Tween-20] and then incubated with monoclonal antibodies against actin (1:5000), GRP94 (1:1000), Hsp90 (1:1000), TRAF2 (1:500), XIAP (1:1000), survivin (1:500), glyceraldehyde-3-phosphate dehydrogenase (GAPDH) (1:5000) and IKKα/β for 5 hours. A monoclonal anti-human actin antibody was used as a control. Horseradish-peroxidase-conjugated anti-mouse, anti-goat or anti-rabbit immunoglobulin Gs (IgGs) were used as secondary antibodies (1:5000), and bands were visualized by enhanced chemiluminescence (ECL) according to the manufacturer's instructions (Amersham).\nThe protein level of IκBα in control Huh-7 cells, Huh-7 cells containing replicons FK-E1 (UAA), and FK-E2(UAA) were measured by Western-blot assays with time; this is because the phosphorylation-dependent degradation of IκBs is an essential step for NF-κB activation after TNF-α treatment. […] Within 5 minutes of TNF-α treatment, IκBα proteins were not detected in the control Huh-7 cells (FIG. 1C). In Huh-7 cells containing the replicon FK-E1(UAA) that expresses NS3-5B, core and E1 proteins, the degradation of IκBα was delayed by up to 10 minutes after treatment with TNF-α (FIG. 1C)."}, "[4]": {"system": "HCV strain JFH 5a-Rluc", "test": "HCV infectivity assessed by luciferase activity of JFH 5a-Rluc in Huh-7 cells", "format": "cell-based, hepatitis C virus", "details": "siRNA 48 hours before infection, TRAIL 18 hours after 24 hours infection", "method": "as §1\nTo confirm that the anti-apoptotic activity of E2 is induced by GRP94 and NF-κB-related gene products in HCV-infected cells, the levels of GRP94, XIAP, TRAF2, FLIP and Bcl-xL were monitored using a HCV-infection system. The infectious JFH1 strain of HCV (Wakita T, Pietschmann T, Kato T, Date T, Miyamoto M, Zhao Z, Murthy K, et al. Production of infectious hepatitis C virus in tissue culture from a cloned viral genome. Nat Med 2005; 11:791-796) and a JFH1 derivative known as JFH5a-Rluc with a reporter gene (Renilla luciferase) in the NS5A of HCV (FIG. 6A) that is suitable for quantification of HCV infection (Kim C S, Jung J H, Wakita T, Yoon S K, Jang S K. Monitoring the Antiviral Effect of Alpha Interferon on Individual Cells. J. Virol. 2007; 81:8814-8820) were used. […]\nHuh-7 cells were transfected with a control siRNA (lanes 1, 2, 5 and 6) and a siRNA against GRP94 (lanes 3, 4, 7 and 8) and incubated for 48 hours. […] The levels of PARP, GRP94 and actin were monitored by Western-blot analysis. The HCV infectivity levels were assessed by measuring luciferase activities. […]"}, "[5]": {"system": "control, GRP94-overexpressing and E2-expressing cells", "test": "TRAIL-induced apoptosis monitored by cleavage of PARP (Western-blot) in control, GRP94-overexpressing and E2-expressing cells", "format": "cell-based", "details": "200 ng/ml TRAIL for 2 hours", "excerpt": "The role of GRP94 in inhibition of apoptosis during HCV infection was investigated using a siRNA against GRP94 and a control siRNA, the GRP94-overexpressing, and the E2-expressing cell lines (FIG. 5). The strong apoptosis inducer TRAIL was used to mimic the physiological conditions of a virus infection that induces TRAIL expression. Cleavage of PARP, which is a substrate of activated caspase-3/7, was used to monitor the process of apoptosis. The obtained results were shown in FIG. 5, wherein control (lanes 1-4), GRP94-overexpressing (lanes 5-8), and E2-expressing (lanes 9-12) cells were mock-treated (lanes 1, 3, 5, 7, 9 and 11) or treated with 200 ng/ml TRAIL (lanes 2, 4, 6, 8, 10 and 12) for 2 hours after treatment with a control siRNA (lanes 3, 4, 7, 8, 11 and 12) or a siRNA against GRP94 (lanes 1, 2, 5, 6, 9 and 10). The levels of uncleaved PARP, GRP94, HCV E2 and actin were monitored by Western-blot analysis."}, "[6]": {"system": "HCV-infected Huh-7 cells", "test": "TRAIL-induced PARP cleavage in mock-infected and HCV (JFH 5a-Rluc)-infected Huh-7 cells", "format": "cell-based", "details": "TRAIL for 18 hours", "method": "Huh-7 cells were transfected with a control siRNA (lanes 1, 2, 5 and 6) and a siRNA against GRP94 (lanes 3, 4, 7 and 8) and incubated for 48 hours. The siRNA-treated cells were mock-infected (lanes 1-4) or infected with HCV (JFH 5a-Rluc) (lanes 5-8) and incubated for 24 hours. After infection, the cells were mock-treated (lanes 1, 3, 5 and 7) or treated with TRAIL (lanes 2, 4, 6 and 8) for 18 hours. These cells were used to monitor protein levels (upper panel) and virus infection (lower panel). The levels of PARP, GRP94 and actin were monitored by Western-blot analysis. The HCV infectivity levels were assessed by measuring luciferase activities. Experiments were performed six times with triplicate samples each, and mean and standard deviation values of the experiments are shown as columns and lines, respectively."}}, "data": [{"molecule": "Cc1ccc(S(=O)(=O)/C=C/C#N)cc1", "note": "[BAY11-7082]", "values": [{"measurement": "levels of GRP94 protein", "setting": "[1]", "value": "reduced"}, {"measurement": "levels of XIAP, TRAF2, survivin, and IKKα/β", "setting": "[1]; GRP94-expressing and control cells", "value": "markedly reduced"}]}, {"molecule": "tumor necrosis factor (TNF)-α [TNF-α]", "values": [{"measurement": "increase in NF-κB reporter activity", "setting": "[2]", "value": "about 10 fold"}, {"measurement": "time after TNF-α treatment at which residual IκBα proteins were not detected", "setting": "[3]; FK-E2(UAA)-containing Huh-7 cells", "value": "≤ 5", "unit": "min"}, {"measurement": "delay of degradation of IκBα after treatment with TNF-α", "setting": "[3]; Huh-7 cells containing replicon FK-E1(UAA)", "value": "up to 10 minutes"}, {"measurement": "time after TNF-α treatment at which IκBα proteins were not detected", "setting": "[3]; control Huh-7 cells", "value": "≤ 5", "unit": "min"}]}, {"molecule": "B1", "values": [{"measurement": "reduction of infectivity of HCV", "setting": "[4]", "value": "about 20%"}, {"measurement": "cleavage of PARP", "setting": "[5]; GRP94-overexpressing and HCV-E2-expressing cells", "value": "blocked"}, {"measurement": "cleavage of PARP", "setting": "[5]; control cells, with control siRNA or GRP94 siRNA", "value": "observed"}, {"measurement": "levels of PARP cleavage", "setting": "[6]; HCV-infected Huh-7 cells", "value": "almost no reductions"}, {"measurement": "cleavage of PARP", "setting": "[6]; mock-infected Huh-7 cells", "value": "observed"}]}]}
